Experimental data as given in patent US10795272B2, “Triphenylamine derivative, and charge transport material and electrophotographic photoreceptor using the same” (TAKASAGO INTERNATIONAL CORPORATION, priority 2016, dated 2020).

Assays:
[1] = Solubility in tetrahydrofuran; type: physicochemical; conditions: 25° C.; weight completely dissolved in 1 g of tetrahydrofuran
Description: Compound (1-1) was dissolved in 1 g of tetrahydrofuran at 25° C.
In the same manner as in Example 14, experiments were conducted by using Compound (1-4) or (1-9).
In the same manner as in Example 14, experiments were conducted by using Comparative Compound (5) which was a compound described in Japanese Patent Application Publication No. Hei 3-149560.

SMILES	melting point	Solubility [1]
COc1ccc(N(c2ccc(/C=C/c3ccc(/C=C/C=C(c4ccccc4)c4ccccc4)cc3)cc2)c2ccc(/C=C/c3ccc(/C=C/c4ccc(N(c5ccc(/C=C/c6ccc(/C=C/C=C(c7ccccc7)c7ccccc7)cc6)cc5)c5ccc(OC)cc5)cc4)cc3)cc2)cc1 [Compound (1-9)]	222 to 224 °C	0.14 g/g tetrahydrofuran
Cc1ccc(N(c2ccc(/C=C/c3ccc(/C=C/C=C(c4ccccc4)c4ccccc4)cc3)cc2)c2ccc(/C=C/c3ccc(/C=C/c4ccc(N(c5ccc(C)cc5)c5ccc(/C=C/c6ccc(/C=C/C=C(c7ccccc7)c7ccccc7)cc6)cc5)cc4)cc3)cc2)cc1 [Compound (1-1)]	178 to 180 °C	0.16 g/g tetrahydrofuran
C(=Cc1ccc(N(c2ccccc2)c2ccc(C=C(c3ccccc3)c3ccccc3)cc2)cc1)c1ccc(C=Cc2ccc(N(c3ccccc3)c3ccc(C=C(c4ccccc4)c4ccccc4)cc3)cc2)cc1 [Comparative Compound (5), reference compound]		0.03 g/g tetrahydrofuran
Cc1ccc(C(=C/C=C/c2ccc(/C=C/c3ccc(N(c4ccc(/C=C/c5ccc(/C=C/c6ccc(N(c7ccc(/C=C/c8ccc(/C=C/C=C(c9ccc(C)cc9)c9ccc(C)cc9)cc8)cc7)c7ccc(C)cc7C)cc6)cc5)cc4)c4ccc(C)cc4C)cc3)cc2)c2ccc(C)cc2)cc1 [Compound (1-17)]	255 to 257 °C	

Other lines, results leading:

melting point	Solubility [1]	SMILES
161 to 163 °C		Cc1ccc(N(c2ccc(/C=C/c3ccc(/C=C/C=C(c4ccccc4)c4ccccc4)cc3)cc2)c2ccc(/C=C/c3ccc(/C=C/c4ccc(N(c5ccc(/C=C/c6ccc(/C=C/C=C(c7ccccc7)c7ccccc7)cc6)cc5)c5ccc(C)cc5C)cc4)cc3)cc2)c(C)c1 [Compound (1-7)]
162 to 164 °C	0.13 g/g tetrahydrofuran	C(/C=C/c1ccc(/C=C/c2ccc(N(c3ccccc3)c3ccc(/C=C/c4ccc(/C=C/c5ccc(N(c6ccccc6)c6ccc(/C=C/c7ccc(/C=C/C=C(c8ccccc8)c8ccccc8)cc7)cc6)cc5)cc4)cc3)cc2)cc1)=C(c1ccccc1)c1ccccc1 [Compound (1-4)]
